The values that follow are results of earlier work, collected in patent US20250205209A1, “Methods of Treating a Subject for Myalgic Encephalomyelitis/Chronic Fatigue Syndrome (ME/CFS) and Compositions for Use in The Same” (INCELLDX, INC., priority 2022, published 2025).

SMILES strings stand for the structures.

For data set [1] the following is noted: HIV patients; >5 year follow-up of the MOTIVATE trials.
Data set [2] deals with R5-tropic HIV-1. The following applies: individuals with R5-tropic HIV-1; MOTIVATE 1 and MOTIVATE 2.

Consider `Cc1nnc(C(C)C)n1[C@@H]1C[C@H]2CC[C@@H](C1)N2CC[C@H](NC(=O)C1CCC(F)(F)CC1)c1ccccc1` [Maraviroc, 4,4-difluoro-N-[(1S)-3-[(1S,5R)-3-(3-methyl-5-propan-2-yl-1,2,4-triazol-4-yl)-8-azabicyclo[3.2.1]octan-8-yl]-1-phenylpropyl]cyclohexane-1-carboxamide], for which the “instances of death and other health threats such as hepatic failure and myocardial infarctions” value in data set [1] is “limited instances of death and other health threats”. In addition, the HIV viral loads result in data set [2] was “lower levels of HIV viral loads”.
